In patent publication EP0177414A1, “Jodized triaminobenzene compounds, process for their preparation and their use in contrast products” (GUERBET S.A., priority 1984, dated 1986):
Values after ≈ are worked out from the molar mass of the structure shown.

Assays:
[1] = Stability to sterilisation; type: physicochemical; details: treated at 121 °C for 10 mn
[2] = Neurotoxicity: acute toxicity by intracerebral administration; design: species or system souris; details: mouse, in vivo, female SWISS OF1 mice, toxicity noted 7 days after administration, read-out: DL50 IC
Description: - la toxicité aiguë des composés a été déterminée sur souris femelles (poids 20 g) de souche SWISS OF1 par administration intra-cérébrale selon la technique décrite par HOLEY et Mc CQRMICK dans :
Pharmacological effects produced by intracerebral injection of drugs in the conscious mouse BRIT.J.PHARMACOL. 12, 2. 1957.
5 animaux sont utilisés par dose, les volumes administrés sont de 0,05 cm^3 - 0,07 cm^3 - 0,10 cm^3 par souris soit 2,5 - 3,5 et 5 cm^3 par kg, avec des vitesses d'injection lentes.
La toxicité (DL50) est notée 7 jours après l'administration. 2) Osmolalité

Solubility = type: physicochemical; details: read-out: Solubilité
Description: (§1) - l'osmolalité exprimée en mosmoles par kg, est déterminée par cryoscopie à l'aide d'un osmomètre de type FISKE-OS Les résultats sont donnés dans le tableau suivant où l'on a également donné 1a solubilité des composés

[3] = Osmolality by cryoscopy (FISKE-OS osmometer); type: physicochemical
Description: as §1

Row | Structure (SMILES) | stables à la stérilisation [1] | LD50 at 168 h [2] [µmol/kg] | solubility (Solubility) [mM] | Osmolalité [3] [mosmol par kg]
1 | CC(=O)N(CC(O)CO)c1c(I)c(N(CC(O)CO)C(C)=O)c(I)c(N(CC(O)CO)C(C)=O)c1I (centres unmarked) [Exemple 3, 2,4,6-triiodo-1,3,5-tris [N-(2,3-dihydroxy propyl)acétamido]benzène] | ne présentent pas de modifications | 4000 | 1000 (≈ 849 mg/mL) | 630
2 | COCC(=O)Nc1c(I)c(N(CC(O)CO)C(C)=O)c(I)c(N(CC(O)CO)C(C)=O)c1I (centres unmarked) [Exemple 8] | ne présentent pas de modifications | 3300 | 940 (≈ 757 mg/mL) | 
3 | CC(=O)N(CC(O)CO)c1c(I)c(NC(=O)C(C)O)c(I)c(N(CC(O)CO)C(C)=O)c1I (centres unmarked) [Exemple 9, 2,4,6-triiodo-1-(2-hydroxypropionyl-amino)-3,5-bis [N-(2,3-dihydroxy propyl)acétamido]benzène] | ne présentent pas de modifications | 3500 | 1000 (≈ 805 mg/mL) | 690
